In ChEMBL document CHEMBL1151599, “Probing the importance of the second chloroethyl arm of a benzoic acid mustard derivative of an imidazole-containing analogue of distamycin” (Bioorg Med Chem Lett, 1994):

Columns and labels:
K562 = assay: Cytotoxicity against the growth of chronic human myeloid leukemia K562 cells in culture following 1 hour exposure of compound using MTT assay; format: functional, cell-based; conditions: K562, 1 h
Nucleic Acid [1] = assay: Apparent DNA binding constant to T4 DNA was determined using an ethidium displacement assay; format: nucleic-acid assay
Nucleic Acid [2] = assay: Apparent DNA binding constant to calf thymus DNA was determined using an ethidium displacement assay; format: nucleic-acid assay; conditions: Bos taurus
Nucleic Acid [3] = assay: Apparent DNA binding constant to Poly (dA-dT) was determined using an ethidium displacement assay; format: nucleic-acid assay
Nucleic Acid [4] = assay: Apparent DNA binding constant to Poly (dG-dC) was determined using an ethidium displacement assay; format: nucleic-acid assay

| SMILES | IC50 (K562) | K app (Nucleic Acid [1]) | K app (Nucleic Acid [2]) | K app (Nucleic Acid [3]) | K app (Nucleic Acid [4]) |
| --- | --- | --- | --- | --- | --- |
| CN(C)CCNC(=O)c1nc(NC(=O)c2nc(NC(=O)c3nc(NC(=O)c4ccc(NCCCl)cc4)cn3C)cn2C)cn1C | > 100 µM | 3.89e+06 M⁻¹ | 2.27e+06 M⁻¹ | 550000 M⁻¹ | 900000 M⁻¹ |
| CN(C)CCNC(=O)c1nc(NC(=O)c2nc(NC(=O)c3nc(NC(=O)c4ccc(N(CCCl)CCCl)cc4)cn3C)cn2C)cn1C |  | 170000 M⁻¹ | 590000 M⁻¹ | 550000 M⁻¹ | 500000 M⁻¹ |
